The target in this experiment is IKZF2 (Homo sapiens (Human), UniProt Q96SW2+Q9UKS7). In words: IKZF2 HiBiT Assay (Jurkat-IKZF2-HiBiT cell line). In kind it is cell-based. The following applies: Jurkat-IKZF2-HiBiT cells, 24 hours; for DC50: read-out: HiBit assay degradation analysis DC50; for Dmax: read-out: HiBit assay degradation analysis Dmax. As to the method:
Degradation of IKZF2 protein is determined by IKZF2 HiBiT assay using the Jurkat-IKZF2-HiBiT (Promega) cell line. Briefly, cells are seeded in culture medium. Compounds are serially diluted in culture medium, and certain volume of the diluted compounds is added to the appropriate well of the plate. After the addition of compounds, the cells are incubated. At the end of treatment, Nano-Glo HiBiT Lytic Detection Reagent (Promega) is added to each well, and then the plates are incubated at room temperature for a certain time period. The luminescent signal is measured using a CALRIOstar plate reader (BMG Labtech). The readings are normalized to the DMSO-treated cells and the IC50 is calculated by nonlinear regression (four parameters sigmoid fitted with variable slope, least squares fit, and no constraint) analysis using the GraphPad Prism 8 software.
Degradation of IKZF2 protein was determined by IKZF2 HiBiT assay using the Jurkat-IKZF2-HiBiT (Promega) cell line. […] Compounds were serially diluted in culture medium, and 20 μl of the diluted compounds were added to the appropriate wells of the plate. After the addition of compounds, the cells were incubated at 37° C. in an atmosphere of 5% CO2 for 24 hours. At the end of treatment, 40 ul of Nano-Glo HiBiT Lytic Detection Reagent (Promega) was added to each well, and then the plates were incubated at room temperature for 10-20 minutes. The luminescent signal was measured using a CALRIOstar plate reader (BMG Labtech). The readings were normalized to the DMSO-treated cells and the IC50 was calculated by nonlinear regression (four parameters sigmoid fitted with variable slope, least squares fit, and no constraint) analysis using the GraphPad Prism 8 software.
A general note: The HiBiT peptide binds its large partner to form an active luciferase.

Molecules are shown by their SMILES.

IKZF2, sequence (Q9UKS7 whole entry): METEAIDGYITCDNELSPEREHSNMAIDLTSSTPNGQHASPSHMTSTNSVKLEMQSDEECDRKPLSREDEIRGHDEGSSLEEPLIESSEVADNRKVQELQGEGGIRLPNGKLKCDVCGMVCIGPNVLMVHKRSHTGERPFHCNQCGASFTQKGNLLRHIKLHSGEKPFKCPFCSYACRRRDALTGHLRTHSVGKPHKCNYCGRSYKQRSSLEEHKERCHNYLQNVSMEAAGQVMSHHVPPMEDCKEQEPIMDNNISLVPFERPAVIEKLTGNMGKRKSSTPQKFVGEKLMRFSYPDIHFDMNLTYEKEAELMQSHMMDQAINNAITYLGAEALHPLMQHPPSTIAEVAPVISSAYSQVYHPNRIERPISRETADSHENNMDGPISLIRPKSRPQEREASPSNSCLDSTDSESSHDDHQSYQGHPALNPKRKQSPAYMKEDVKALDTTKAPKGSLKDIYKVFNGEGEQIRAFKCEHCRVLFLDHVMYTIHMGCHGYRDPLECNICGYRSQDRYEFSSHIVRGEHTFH
IKZF2, sequence (Q96SW2 whole entry): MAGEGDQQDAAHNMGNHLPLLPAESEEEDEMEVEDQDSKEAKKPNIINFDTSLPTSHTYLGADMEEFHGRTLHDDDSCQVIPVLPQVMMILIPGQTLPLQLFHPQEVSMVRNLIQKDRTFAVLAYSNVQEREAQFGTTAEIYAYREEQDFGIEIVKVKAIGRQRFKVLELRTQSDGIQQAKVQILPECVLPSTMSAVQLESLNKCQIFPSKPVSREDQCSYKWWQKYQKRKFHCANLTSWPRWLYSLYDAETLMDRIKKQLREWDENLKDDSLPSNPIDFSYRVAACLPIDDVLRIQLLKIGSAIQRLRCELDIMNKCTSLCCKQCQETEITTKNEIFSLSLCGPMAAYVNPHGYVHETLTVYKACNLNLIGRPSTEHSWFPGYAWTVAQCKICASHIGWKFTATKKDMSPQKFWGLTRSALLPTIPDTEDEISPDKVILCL
IKZF2, sequence (Q16531 whole entry partner): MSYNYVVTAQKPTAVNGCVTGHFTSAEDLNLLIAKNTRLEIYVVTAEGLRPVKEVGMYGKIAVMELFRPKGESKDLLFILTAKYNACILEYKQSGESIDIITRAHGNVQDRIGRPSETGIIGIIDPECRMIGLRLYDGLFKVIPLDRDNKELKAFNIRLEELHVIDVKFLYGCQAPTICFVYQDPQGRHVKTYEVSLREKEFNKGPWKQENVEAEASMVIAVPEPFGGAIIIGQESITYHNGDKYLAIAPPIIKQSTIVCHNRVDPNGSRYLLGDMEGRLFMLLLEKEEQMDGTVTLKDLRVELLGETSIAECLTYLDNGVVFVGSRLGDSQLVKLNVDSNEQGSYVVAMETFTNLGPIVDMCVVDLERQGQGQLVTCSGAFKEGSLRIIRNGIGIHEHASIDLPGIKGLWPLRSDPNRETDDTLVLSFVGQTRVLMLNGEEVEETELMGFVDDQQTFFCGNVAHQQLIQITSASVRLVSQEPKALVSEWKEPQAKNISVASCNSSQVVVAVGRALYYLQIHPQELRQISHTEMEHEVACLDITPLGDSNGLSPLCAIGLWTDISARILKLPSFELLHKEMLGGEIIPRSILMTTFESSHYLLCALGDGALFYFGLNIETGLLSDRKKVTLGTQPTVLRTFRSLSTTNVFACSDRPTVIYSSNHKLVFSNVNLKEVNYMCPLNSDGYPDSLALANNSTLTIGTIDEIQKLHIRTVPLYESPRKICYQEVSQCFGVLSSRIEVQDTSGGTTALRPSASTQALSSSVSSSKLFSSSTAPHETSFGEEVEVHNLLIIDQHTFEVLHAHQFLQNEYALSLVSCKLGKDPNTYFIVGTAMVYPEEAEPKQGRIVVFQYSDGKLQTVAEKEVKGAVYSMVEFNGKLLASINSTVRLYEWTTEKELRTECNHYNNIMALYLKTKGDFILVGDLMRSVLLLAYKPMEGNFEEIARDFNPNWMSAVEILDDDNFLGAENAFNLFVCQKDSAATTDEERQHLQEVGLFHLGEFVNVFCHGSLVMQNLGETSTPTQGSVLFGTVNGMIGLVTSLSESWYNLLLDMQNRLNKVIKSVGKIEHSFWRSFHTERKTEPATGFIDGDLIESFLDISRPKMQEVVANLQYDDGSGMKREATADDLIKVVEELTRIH

The DC50 is the concentration giving 50% degradation. As a reminder, the Dmax is the greatest extent of degradation seen. Regarding `O=C1CCC(N2Cc3c(ccc4c3OCC43CCN(Cc4cccn5nccc45)CC3)C2=O)C(=O)N1` (stereo not drawn) [Compound A58, 3-(6-oxo-1′-(pyrazolo[1,5-a]pyridin-4-ylmethyl)-6,8-dihydro-2H,7H-spiro[furo[2,3-e]isoindole-3,4′-piperidin]-7-yl)piperidine-2,6-dione], the DC50 was over 500 nM and the Dmax lay within 40 to 60%.

With `O=C1CCC(N2Cc3c(ccc4c3OCC43CCN(Cc4cccc5cc[nH]c45)CC3)C2=O)C(=O)N1` (stereo not drawn) [Compound A59, 3-(1′-((1H-indol-7-yl)methyl)-6-oxo-6,8-dihydro-2H,7H-spiro[furo[2,3-e]isoindole-3,4′-piperidin]-7-yl)piperidine-2,6-dione], the DC50 was in the range of 50 to 200 nM and the Dmax is over 80%.

As for `O=C1CCC(N2Cc3c(ccc4c3OCC43CCN(Cc4ccc5oncc5c4)CC3)C2=O)C(=O)N1` (stereo not drawn) [Compound A60, 3-(1′-(benzo[d]isoxazol-5-ylmethyl)-6-oxo-6,8-dihydro-2H,7H-spiro[furo[2,3-e]isoindole-3,4′-piperidin]-7-yl)piperidine-2,6-dione], the DC50 is over 500 nM and the Dmax was in the range of 40 to 60%.

For the molecule `O=C1CCC(N2Cc3c(ccc4c3OCC43CCN(Cc4ccc5ncsc5c4)CC3)C2=O)C(=O)N1` (stereo not drawn) [Compound A62, 3-(1′-(benzo[d]thiazol-6-ylmethyl)-6-oxo-6,8-dihydro-2H,7H-spiro[furo[2,3-e]isoindole-3,4′-piperidin]-7-yl)piperidine-2,6-dione], the DC50 fell in the range of 200 to 500 nM and the Dmax was in the range of 40 to 60%.

In the case of `O=C1CCC(N2Cc3c(ccc4c3OCC43CCN(Cc4ccc5cccnc5c4)CC3)C2=O)C(=O)N1` (stereo not drawn) [Compound A64, 3-(6-oxo-1′-(quinolin-7-ylmethyl)-6,8-dihydro-2H,7H-spiro[furo[2,3-e]isoindole-3,4′-piperidin]-7-yl)piperidine-2,6-dione], the DC50 was 50 to 200 nM and the Dmax fell in the range of 60 to 80%.

For the molecule `O=C1CCC(N2Cc3c(ccc4c3OCC43CCN(Cc4ccc5cnccc5c4)CC3)C2=O)C(=O)N1` (stereo not drawn) [Compound A65, 3-(1′-(isoquinolin-6-ylmethyl)-6-oxo-6,8-dihydro-2H,7H-spiro[furo[2,3-e]isoindole-3,4′-piperidin]-7-yl)piperidine-2,6-dione], the 50% degradation concentration (DC50) is over 500 nM and the Dmax is 40 to 60%.

For the molecule `O=C1CCC(N2Cc3c(ccc4c3OCC43CCN(Cc4ccc5cc[nH]c5n4)CC3)C2=O)C(=O)N1` (stereo not drawn) [Compound A66, 3-(1′-((1H-pyrrolo[2,3-b]pyridin-6-yl)methyl)-6-oxo-6,8-dihydro-2H,7H-spiro[furo[2,3-e]isoindole-3,4′-piperidin]-7-yl)piperidine-2,6-dione], the 50% degradation concentration (DC50) was over 500 nM and the Dmax lay within 40 to 60%.

`Cn1cc2c(CN3CCC4(CC3)COc3c4ccc4c3CN(C3CCC(=O)NC3=O)C4=O)cccc2n1` (stereo not drawn) [Compound A67, 3-(1′-((2-methyl-2H-indazol-4-yl)methyl)-6-oxo-6,8-dihydro-2H,7H-spiro[furo[2,3-e]isoindole-3,4′-piperidin]-7-yl)piperidine-2,6-dione]: the 50% degradation concentration (DC50) was in the range of 50 to 200 nM and the greatest degradation seen (Dmax) fell in the range of 60 to 80%.

As to `Cn1cc2cc(CN3CCC4(CC3)COc3c4ccc4c3CN(C3CCC(=O)NC3=O)C4=O)ccc2n1` (stereo not drawn) [Compound A68, 3-(1′-((2-methyl-2H-indazol-5-yl)methyl)-6-oxo-6,8-dihydro-2H,7H-spiro[furo[2,3-e]isoindole-3,4′-piperidin]-7-yl)piperidine-2,6-dione], the half-maximal degradation concentration (DC50) is over 500 nM and the Dmax is 40 to 60%.

For the molecule `O=C1CCC(N2Cc3c(ccc4c3OCC43CCN(Cc4ccc5[nH]cnc5c4)CC3)C2=O)C(=O)N1` (stereo not drawn) [Compound A70, 3-(1′-((1H-benzo[d]imidazol-5-yl)methyl)-6-oxo-6,8-dihydro-2H,7H-spiro[furo[2,3-e]isoindole-3,4′-piperidin]-7-yl)piperidine-2,6-dione], the DC50 was in the range of 200 to 500 nM and the Dmax is 60 to 80%.

On to `O=C1CCC(N2Cc3c(ccc4c3OCC43CCN(Cc4cccc5[nH]cnc45)CC3)C2=O)C(=O)N1` (stereo not drawn) [Compound A71, 3-(1′-((1H-benzo[d]imidazol-4-yl)methyl)-6-oxo-6,8-dihydro-2H,7H-spiro[furo[2,3-e]isoindole-3,4′-piperidin]-7-yl)piperidine-2,6-dione], for which the DC50 is over 500 nM and the maximal degradation (Dmax) was 40 to 60%.

Regarding `Cn1cnc2ccc(CN3CCC4(CC3)COc3c4ccc4c3CN(C3CCC(=O)NC3=O)C4=O)cc21` (stereo not drawn) [Compound A72, 3-(1′-((1-methyl-1H-benzo[d]imidazol-6-yl)methyl)-6-oxo-6,8-dihydro-2H,7H-spiro[furo[2,3-e]isoindole-3,4′-piperidin]-7-yl)piperidine-2,6-dione], the half-maximal degradation concentration (DC50) was over 500 nM and the Dmax is 40 to 60%.

Turning to `O=C1CCC(N2Cc3c(ccc4c3OCC43CCN(Cc4ccnc5[nH]ccc45)CC3)C2=O)C(=O)N1` (stereo not drawn) [Compound A73, 3-(1′-((1H-pyrrolo[2,3-b]pyridin-4-yl)methyl)-6-oxo-6,8-dihydro-2H,7H-spiro[furo[2,3-e]isoindole-3,4′-piperidin]-7-yl)piperidine-2,6-dione], the DC50 was over 500 nM and the maximal degradation (Dmax) was 40 to 60%.

Consider `Cn1ccc2cccc(CN3CCC4(CC3)COc3c4ccc4c3CN(C3CCC(=O)NC3=O)C4=O)c21` (stereo not drawn) [Compound A74, 3-(1′-((1-methyl-1H-indol-7-yl)methyl)-6-oxo-6,8-dihydro-2H,7H-spiro[furo[2,3-e]isoindole-3,4′-piperidin]-7-yl)piperidine-2,6-dione], for which the DC50 fell in the range of 50 to 200 nM and the Dmax is 60 to 80%.

Take `Cn1cc2cccc(CN3CCC4(CC3)COc3c4ccc4c3CN(C3CCC(=O)NC3=O)C4=O)c2n1` (stereo not drawn) [Compound A75, 3-(1′-((2-methyl-2H-indazol-7-yl)methyl)-6-oxo-6,8-dihydro-2H,7H-spiro[furo[2,3-e]isoindole-3,4′-piperidin]-7-yl)piperidine-2,6-dione]: the DC50 fell in the range of 50 to 200 nM and the Dmax was 60 to 80%.

As for `O=C1CCC(N2Cc3c(ccc4c3OCC43CCN(Cc4cccc5ccnn45)CC3)C2=O)C(=O)N1` (stereo not drawn) [Compound A76, 3-(6-oxo-1′-(pyrazolo[1,5-]pyridin-7-ylmethyl)-6,8-dihydro-2H,7H-spiro[furo[2,3-e]isoindole-3,4′-piperidin]-7-yl)piperidine-2,6-dione], the DC50 is over 500 nM and the Dmax was under 40%.

`O=C1CCC(N2Cc3c(ccc4c3OCC43CCN(Cc4cccn5ccnc45)CC3)C2=O)C(=O)N1` (stereo not drawn) [Compound A77, 3-(1′-(imidazo[1,2-a]pyridin-8-ylmethyl)-6-oxo-6,8-dihydro-2H,7H-spiro[furo[2,3-e]isoindole-3,4′-piperidin]-7-yl)piperidine-2,6-dione]: the DC50 is over 500 nM and the Dmax was in the range of 40 to 60%.

In the case of `O=C1CCC(N2Cc3c(ccc4c3OCC43CCN(Cc4ccn5ccnc5c4)CC3)C2=O)C(=O)N1` (stereo not drawn) [Compound A78], the DC50 was in the range of 200 to 500 nM and the Dmax was in the range of 40 to 60%.

As for `O=C1CCC(N2Cc3c(ccc4c3OCC43CCN(Cc4ccc5nccn5c4)CC3)C2=O)C(=O)N1` (stereo not drawn) [Compound A79], the DC50 is over 500 nM and the Dmax was under 40%.

As for `O=C1CCC(N2Cc3c(ccc4c3OCC43CCN(Cc4ccn5nccc5c4)CC3)C2=O)C(=O)N1` (stereo not drawn) [Compound A80, 3-(6-oxo-1′-(pyrazolo[1,5-a]pyridin-5-ylmethyl)-6,8-dihydro-2H,7H-spiro[furo[2,3-e]isoindole-3,4′-piperidin]-7-yl)piperidine-2,6-dione], the DC50 was over 500 nM and the Dmax is under 40%.

With `O=C1CCC(N2Cc3c(ccc4c3OCC43CCN(Cc4cnc(-c5ccccc5)s4)CC3)C2=O)C(=O)N1` (stereo not drawn) [Compound A81, 3-(6-oxo-1′-((2-phenylthiazol-5-yl)methyl)-6,8-dihydro-2H,7H-spiro[furo[2,3-e]isoindole-3,4′-piperidin]-7-yl)piperidine-2,6-dione], the DC50 is over 500 nM and the Dmax is under 40%.

As to `O=C1CCC(N2Cc3c(ccc4c3OCC43CCN(Cc4csc(-c5ccccc5)n4)CC3)C2=O)C(=O)N1` (stereo not drawn) [Compound A82, 3-(6-oxo-1′-((2-phenylthiazol-4-yl)methyl)-6,8-dihydro-2H,7H-spiro[furo[2,3-e]isoindole-3,4′-piperidin]-7-yl)piperidine-2,6-dione], the DC50 is over 500 nM and the Dmax was under 40%.

For the molecule `O=C1CCC(N2Cc3c(ccc4c3OCC43CCN(Cc4coc(-c5ccccc5)n4)CC3)C2=O)C(=O)N1` (stereo not drawn) [Compound A83, 3-(6-oxo-1′-((2-phenyloxazol-4-yl)methyl)-6,8-dihydro-2H,7H-spiro[furo[2,3-e]isoindole-3,4′-piperidin]-7-yl)piperidine-2,6-dione], the DC50 is over 500 nM and the maximal degradation (Dmax) is under 40%.

As for `O=C1CCC(N2Cc3c(ccc4c3OCC43CCN(Cc4c[nH]c(-c5ccccc5)n4)CC3)C2=O)C(=O)N1` (stereo not drawn) [Compound A84, 3-(6-oxo-1′-((2-phenyl-1H-imidazol-4-yl)methyl)-6,8-dihydro-2H,7H-spiro[furo[2,3-e]isoindole-3,4′-piperidin]-7-yl)piperidine-2,6-dione], the DC50 was over 500 nM and the Dmax lay in the range of 40 to 60%.

Source of the values: US20250215012A1, “IKZF2 DEGRADERS AND USES THEREOF” (REGENTS OF THE UNIVERSITY OF MICHIGAN, priority 2022, published 2025).
